Broadly, the inhibition is the share of the control response that was lost under treatment. By MIC is commonly meant the lowest concentration that inhibits growth of the organism. Usually CC50 stands for the concentration at which the toxic effect on the cells reaches its halfway point. By GI50 is commonly meant the concentration giving 50% growth inhibition. Low values mean more potent growth inhibition, high ones less potent growth inhibition.

From ChEMBL document CHEMBL4219252, “Synthesis, antimycobacterial activity and influence on mycobacterial InhA and PknB of 12-membered cyclodepsipeptides” (Bioorg Med Chem, 2018) come the findings set out here.

Converted amounts (≈) assume the structure as drawn. The source made the active and inactive calls. The calls are words filed in the database; no cut-off is given here.

For series [1], the system named is Mycolicibacterium smegmatis. Put plainly: Antimycobacterial activity against Mycobacterium smegmatis SG987 after 48 hrs by resazurin microtiter assay. The format is functional. For orientation: Resazurin is reduced to fluorescent resorufin, in cell work by metabolically active cells.
Series [2] has as its system Mycobacterium tuberculosis. Put plainly: Antimycobacterial activity against Mycobacterium tuberculosis H37Rv after 7 days by BacTiter-Glo microbial cell viability assay. It is filed as functional.
The next series relates to Escherichia coli. In words: Antibacterial activity against Escherichia coli SG458 incubated overnight at 37 degC measured after 24 hrs by agar diffusion method. The format is functional, organism-based. For orientation: Agar diffusion results depend on both activity and mobility in agar.
A further series relates to Bacillus spizizenii. Put plainly: Antibacterial activity against Bacillus subtilis ATCC 6633 incubated overnight at 37 degC measured after 24 hrs by agar diffusion method. The format is functional, organism-based.
Series [3] deals with Sporobolomyces salmonicolor. Put plainly: Antifungal activity against Sporobolomyces salmonicolor 549 incubated overnight at 30 degC measured after 24 hrs by agar diffusion method. It is filed as functional, organism-based.
Series [4] concerns the target T1, Serine/threonine-protein kinase PknB (Mycobacterium tuberculosis) (UniProt P9WI81).
T1 sequence (whole entry): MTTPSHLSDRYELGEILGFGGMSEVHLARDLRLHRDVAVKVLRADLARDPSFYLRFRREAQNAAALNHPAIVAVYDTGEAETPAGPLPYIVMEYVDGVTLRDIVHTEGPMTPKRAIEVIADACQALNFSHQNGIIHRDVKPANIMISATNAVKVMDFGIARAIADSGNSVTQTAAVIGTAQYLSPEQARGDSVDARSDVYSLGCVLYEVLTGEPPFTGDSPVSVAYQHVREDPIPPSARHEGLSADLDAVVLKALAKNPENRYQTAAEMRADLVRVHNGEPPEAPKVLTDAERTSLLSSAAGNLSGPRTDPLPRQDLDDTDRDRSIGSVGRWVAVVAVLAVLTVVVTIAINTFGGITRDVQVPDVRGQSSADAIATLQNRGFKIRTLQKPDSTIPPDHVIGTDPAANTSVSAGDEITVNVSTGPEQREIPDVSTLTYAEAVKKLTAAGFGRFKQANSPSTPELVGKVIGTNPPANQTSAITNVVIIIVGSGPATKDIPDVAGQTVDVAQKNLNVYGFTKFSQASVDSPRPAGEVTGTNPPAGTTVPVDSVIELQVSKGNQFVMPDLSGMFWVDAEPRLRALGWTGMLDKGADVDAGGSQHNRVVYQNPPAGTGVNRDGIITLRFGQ
In words: Inhibition of Mycobacterium tuberculosis GST-tagged PknB expressed in Escherichia coli assessed as reduction in PknB autophosphorylation at 0.24 to 4.8 uM preincubated for 30 mins followed by [gamma32P]ATP addition measured after 30 mins by scintillation counting method.

Series [5] has as its target T1, Serine/threonine-protein kinase PknB (Mycobacterium tuberculosis). In words: Induction of Mycobacterium tuberculosis GST-tagged PknB autophosphorylation expressed in Escherichia coli at 4.8 uM preincubated for 30 mins followed by [gamma32P]ATP addition measured after 30 mins by scintillation counting method relative to control.
Series [6] deals with Mycolicibacterium smegmatis. Put plainly: Antimycobacterial activity against Mycobacterium smegmatis SG987 incubated overnight at 37 degC measured after 24 hrs by agar diffusion method. The format is functional.
A further series relates to Mycolicibacterium vaccae. Put plainly: Antimycobacterial activity against Mycobacterium vaccae IMET 10670 incubated overnight at 37 degC measured after 24 hrs by agar diffusion method. It is filed as functional.
Series [7] concerns the target T1, Serine/threonine-protein kinase PknB (Mycobacterium tuberculosis). Put plainly: Inhibition of Mycobacterium tuberculosis GST-tagged PknB expressed in Escherichia coli assessed as reduction in PknB autophosphorylation at 4.8 uM preincubated for 30 mins followed by [gamma32P]ATP addition measured after 30 mins by scintillation counting method relative to control.

A further series relates to Mycolicibacterium aurum. In words: Antimycobacterial activity against Mycobacterium aurum SB66 incubated overnight at 37 degC measured after 24 hrs by agar diffusion method. The format is functional.
The nature of series [8]: Cytotoxicity against human HeLa cells assessed as reduction in cell viability after 72 hrs by CellTiter-Blue1 assay. It is filed as cell-based.
The nature of series [9]: Antiproliferative activity against human K562 cells after 72 hrs by CellTiter-Blue1 assay. The format is cell-based.
Series [10] is described as follows: Antiproliferative activity against HUVEC after 72 hrs by CellTiter-Blue1 assay. The conditions noted are these: human. The format is cell-based.
Where [11] appears, read: Mycobacterium tuberculosis, H37Rv, 168 h, read-out: MIC.

For the compound `C[C@@H](O)C(=O)O[C@H](C)[C@H](NC(=O)OC(C)(C)C)C(=O)NC(CCC(=O)O)Cc1ccccc1` (stereo not given in full), the outcome in series [1] and in series [2] was inactive.
In the case of `C[C@H]1OC(=O)c2ccccc2OC(=O)CCNC(=O)[C@H]1NC(=O)c1ncccc1O`, the result (in the series on Escherichia coli; in the series on Bacillus spizizenii; in [3]; in series [1]; in series [2]) was inactive.
In the case of `C[C@H]1OC(=O)CCC(Cc2ccccc2)NC(=O)[C@@H](NC(=O)OC(C)(C)C)[C@@H](C)OC1=O` (stereo in doubt; form 1), the outcome (with Escherichia coli; with Bacillus spizizenii; in series [3]) was inactive.
Regarding `C[C@H]1OC(=O)CCC(Cc2ccccc2)NC(=O)[C@@H](NC(=O)OC(C)(C)C)[C@@H](C)OC1=O` (stereo in doubt; form 2) [listing 1 of 2 here], the outcome (in the series with Escherichia coli; with Bacillus spizizenii; in series [3]) was inactive. Besides, the inhibition result in series [4] was “inactive”. In [5], the Activity was 60%. This compound returned a fold change (FC) in series [5] of 2.
Regarding `C[C@H]1OC(=O)CCCNC(=O)[C@@H](NC(=O)c2ccccn2)[C@@H](C)OC1=O`, the outcome (in the series on Escherichia coli; in the series with Bacillus spizizenii; in series [3]) was inactive.
On to `C[C@@H](OC(=O)COCc1ccccc1)[C@H](NC(=O)c1ccccc1O)C(=O)NCCCC(=O)OCc1ccccc1`, for which the outcome (in the series with Escherichia coli; in the series with Bacillus spizizenii; in series [3]) was inactive.
Regarding `C[C@@H](OC(=O)COCc1ccccc1)[C@H](NC(=O)c1ncccc1F)C(=O)NCCCC(=O)OCc1ccccc1`, the result (in the series on Escherichia coli; with Bacillus spizizenii; in series [3]) was inactive.
`C[C@H]1OC(=O)COC(=O)CCCNC(=O)[C@H]1NC(=O)c1ccccn1`: the result (in the series on Escherichia coli; in the series with Bacillus spizizenii; in series [3]) was inactive.
For `C[C@H]1OC(=O)CCCNC(=O)[C@@H](NC(=O)c2ncccc2O)[C@@H](C)OC1=O`, the result (in the series with Escherichia coli; in the series with Bacillus spizizenii; in series [3]) was inactive.
Regarding `C[C@H]1OC(=O)COC(=O)CCC(Cc2ccccc2)NC(=O)[C@H]1NC(=O)OC(C)(C)C` (stereo in doubt; form 1) [listing 1 of 2 here], the results for the “diameter of the inhibition zone (DIZ)” value (in series [6]; in the series on Mycolicibacterium vaccae) were 17 mm and 20 - 26 mm, respectively. Further, the MIC was 28.8 µM (≈ 12.5 µg/mL) in series [1] and 8 µM (≈ 3.48 µg/mL) in series [2].
With `CC/C(C)=C1\OC(=O)[C@H](C)[C@@H](O)[C@H](Cc2cccnc2)NC(=O)[C@@H](NC(=O)c2ncccc2O)[C@@H](C)OC1=O`, the inhibition result in series [4] is “inactive”.
As for `C[C@H]1OC(=O)COC(=O)CCC(Cc2ccccc2)NC(=O)[C@H]1NC(=O)OC(C)(C)C` (stereo in doubt; form 1) [listing 2 of 2 here], the result (in the series with Escherichia coli; with Bacillus spizizenii; in series [3]) was inactive. Also, the inhibition in [7] came out at 60%.
As to `NNC(=O)c1ccncc1` [ISONIAZID], the MIC in series [1] (Mycolicibacterium smegmatis, SG987, 48 h, read-out: MIC) came out at 29.2 µM (≈ 4 µg/mL); in series [2] (setting [11]), 0.31 µM (≈ 0.0425 µg/mL).
Consider `C[C@@H](OCc1ccccc1)C(=O)O[C@H](C)[C@H](NC(=O)c1ncccc1O)C(=O)NCCCC(=O)OCc1ccccc1`, for which the outcome (with Escherichia coli; in the series on Bacillus spizizenii; in series [3]) was inactive.
As for `COC(=O)CCC(Cc1ccccc1)NC(=O)[C@@H](NC(=O)OC(C)(C)C)[C@@H](C)OC(=O)[C@@H](C)O` (stereo not given in full), the outcome (in the series with Escherichia coli; in the series on Bacillus spizizenii; in series [3]; in series [6]; in the series with Mycolicibacterium vaccae) was inactive. For the same compound, the inhibition entry in series [4] is “inactive”.
For the compound `C[C@@H](OCc1ccccc1)C(=O)O[C@H](C)[C@H](NC(=O)c1ccccc1O)C(=O)NCCCC(=O)OCc1ccccc1`, the outcome (in the series on Escherichia coli; in the series with Bacillus spizizenii; in series [3]) was inactive.
As to `CC[C@H](C)[C@@H]1NC(=O)C[C@H](CC(C)C)CNC(=O)[C@@H](NC(=O)c2ccccn2)[C@@H](C)OC1=O`, the outcome (with Escherichia coli; in the series on Bacillus spizizenii; in [3]; in series [1]; in series [2]) was inactive.
For `C[C@@H](OC(=O)COCc1ccccc1)[C@H](NC(=O)c1ncccc1O)C(=O)NCCCC(=O)OCc1ccccc1`, the outcome (in the series with Escherichia coli; with Bacillus spizizenii; in series [3]) was inactive.
In the case of `C[C@H]1OC(=O)c2ccccc2OC(=O)CCNC(=O)[C@H]1NC(=O)OC(C)(C)C`, the result (with Escherichia coli; in the series with Bacillus spizizenii; in [3]) was inactive.
With `C[C@H]1OC(=O)COC(=O)CCCNC(=O)[C@H]1NC(=O)c1ncccc1O`, the result (in the series on Escherichia coli; with Bacillus spizizenii; in series [3]) was inactive.
With `C[C@@H](OCc1ccccc1)C(=O)O[C@H](C)[C@H](NC(=O)c1ncccc1F)C(=O)NCCCC(=O)OCc1ccccc1`, the result (in the series with Escherichia coli; in the series on Bacillus spizizenii; in series [3]) was inactive.
On to `C[C@@H](OCc1ccccc1)C(=O)O[C@H](C)[C@H](NC(=O)c1ccccn1)C(=O)NCCCC(=O)OCc1ccccc1`, for which the outcome (with Escherichia coli; in the series on Bacillus spizizenii; in series [3]) was inactive.
`C[C@@H](OC(=O)COCc1ccccc1)[C@H](NC(=O)c1ccccn1)C(=O)NCCCC(=O)OCc1ccccc1`: the outcome (with Escherichia coli; in the series on Bacillus spizizenii; in [3]) was inactive.
As to `C[C@H]1OC(=O)CCC(Cc2ccccc2)NC(=O)[C@@H](NC(=O)OC(C)(C)C)[C@@H](C)OC1=O` (stereo in doubt; form 2) [listing 2 of 2 here], the “diameter of the inhibition zone (DIZ)” value (in series [6]; in the series with Mycolicibacterium vaccae; in the series on Mycolicibacterium aurum) was 0 mm throughout. The MIC in series [2] (setting [11]) is 125 µM (≈ 56.1 µg/mL).
Regarding `C[C@H]1OC(=O)COC(=O)CCC(Cc2ccccc2)NC(=O)[C@H]1NC(=O)OC(C)(C)C` (stereo in doubt; form 2) [listing 1 of 2 here], the outcome (with Escherichia coli; in the series with Bacillus spizizenii; in series [3]) was inactive. Moreover, the inhibition in series [7] came to 60%.
For the compound `C[C@@H](OC(=O)CO)[C@H](NC(=O)OC(C)(C)C)C(=O)NC(CCC(=O)O)Cc1ccccc1` (stereo not given in full), the outcome in [1] and in series [2] was inactive.
Consider `C[C@H]1OC(=O)COC(=O)CCC(Cc2ccccc2)NC(=O)[C@H]1NC(=O)OC(C)(C)C` (stereo in doubt; form 2) [listing 2 of 2 here], for which the “diameter of the inhibition zone (DIZ)” value in [6] is given as 21 mm; in the series on Mycolicibacterium vaccae, 24 - 31 mm; in the series with Mycolicibacterium aurum it was 0 mm. The MIC is 7.2 µM (≈ 3.13 µg/mL) in series [1] and 4 µM (≈ 1.74 µg/mL) in series [2] (setting [11]). For the same compound, the CC50 at 72 h in [8] was in the range of 5 to 50 µg/mL (≈ 11.5 to 115 µM). Moreover, the GI50 at 72 h in series [9] and in series [10] was 5 to 50 µg/mL (≈ 11.5 to 115 µM) each time.
